Laboratory results: patent US7846963B2, “2-oxo-heterocyclic compounds and the pharmaceutical compositions comprising the same” (Korea Research Institute of Bioscience and Biotechnology, priority 2003, dated 2010)

Test system: production of TNF-alpha in RAW 264.7 cells
Assay: Inhibition of TNF-alpha production in LPS-treated RAW 264.7 cells, ELISA of culture supernatant
Type: cell-based, mouse
Settings: Mus musculus, RAW264.7, Table 23, LPS 0.3 μg/ml, 24 hours, compounds up to 10 μM, IC50 unit inferred
Procedure: To test the inhibiting activity of the compounds prepared from above Examples on the production of TNF-alpha, the concentration of TNF-alpha in the cell supernatant was measured.
Each 200 μl of RAW 264.7 cells (ATCC, USA), a mouse macrophage cell line was seeded onto each well of 96-well microtiter plate (Nunc, Sweden) to the concentration ranging from 1×10^6 cells/ml to 5×10^6 cells/ml, and incubated in DMEM (Dulbeco's modified eagles medium) media containing 5% FBS (fetal bovine serum) at 37° C. in 5% CO2 incubator.
Various concentrations of the compounds of the present invention ranging from […] to 10 μM and LPS (Sigma, USA) in the final concentration of 0.3 μg/ml were treated to activated cell simultaneously. The treated cells were cultured at 37° C. for 24 hours in 5% CO2 incubator and the cultured cells were collected after the cultivation
And then the concentration of TNF-alpha secreted from the culture supernatant of RAW 264.7 cells was determined by ELISA according to the manufacture's instruction (R&D Systems, Minneapolis, Minn.).
The result was shown in Table 23 (AA: IC50's<1, A: IC50's<5, B: IC50's<10, C: IC50's>10).

Q: How did the IC50 turn out when `O=C(CCC1=CCN(Cc2ccc3ccccc3c2)C1=O)NO` [Example 49, N-hydroxy-3-(1-naphthalene-2-ylmethyl-2-oxo-2,5-dihydro-1H-pyrrol-3-yl)-propionamide] was run?
A: < 1 µM

Q: Which IC50 does the source give for `O=C(O)CCC1=CCCN(Cc2ccccc2)C1=O` [Example 64, 3-(1-benzyl-2-oxo-1,2,5,6-tetrahydro-pyridin-3-yl)-propionic acid] here?
A: > 10 µM

Q: How did the IC50 turn out when `O=C(CCC1=CCN(CCc2cccs2)C1=O)NO` [Example 54, N-hydroxy-3-[2-oxo-1-(2-thiophen-2-yl-ethyl)-2,5-dihydro-1H-pyrrol-3-yl]-propionamide] was run?
A: < 5 µM

Q: `O=C(CCC1=CCN(Cc2ccc(OCc3ccccc3)cc2)C1=O)NO` [Example 14, 3-[1-(4-benzyloxy-benzyl)-2-oxo-2,5-dihydro-1H-pyrrol-3-yl]-N-hydroxy-propionamide] was tested. Which IC50 did it give?
A: > 10 µM

Q: For `Cc1ccccc1CN1CC=C(CCC(=O)NO)C1=O` [Example 6, N-hydroxy-3-[1-(2-methyl-benzyl)-2-oxo-2,5-dihydro-1H-pyrrol-3-yl]-propionamide], which IC50 is on record?
A: < 5 µM

Q: `O=C(CC1CCCN(CCc2ccccc2)C1=O)NO` (stereo not shown) [Example 93, (2-oxo-1-phenethyl-piperidine-3-yl)-N-hydroxy-acetamide] was tested. Which IC50 did it give?
A: < 5 µM

Q: How did the IC50 turn out when `O=C(CCC1=CCN(CCc2ccc(Br)cc2)C1=O)NO` [Example 35, 3-{1-[2-(4-bromo-phenyl)-ethyl]-2-oxo-2,5-dihydro-1H-pyrrol-3-yl}-N-hydroxy-propionamide] was run?
A: < 5 µM

Q: `O=C(CCC1=CCN(Cc2ccc(NC(=O)c3ccccc3)cc2)C1=O)NO` [Example 18, N-{4-[3-(2-hydroxycarbamoyl-ethyl)-2-oxo-2,5-dihydro-pyrrole-1-yl-methyl]-phenyl}-benzamide] was tested. Which IC50 did it give?
A: > 10 µM

Q: How did the IC50 turn out when `O=C(CCC1=CCN(Cc2ccccc2)C1=O)NO` [Example 2, 3-(1-benzyl-2-oxo-2,5-dihydro-1H-pyrrol-3-yl)-N-hydroxy-propionamide] was run?
A: < 5 µM

Q: How did the IC50 turn out when `COc1cccc(CN2CC=C(CCC(=O)NO)C2=O)c1` [Example 10, N-hydroxy-3-[1-(3-methoxy-benzyl)-2-oxo-2,5-dihydro-1H-pyrrol-3-yl]-propionamide] was run?
A: < 5 µM

Q: `CC(C)c1ccc(CCCN2CC=C(CCC(=O)NO)C2=O)cc1` [Example 43, N-hydroxy-3-{1-[3-(4-isopropyl-phenyl)-propyl]-2-oxo-2,5-dihydro-1H-pyrrol-3-yl]-propionamide] was tested. Which IC50 did it give?
A: < 5 µM

Q: `C=CCN1CC=C(CCC(=O)NO)C1=O` [Example 51, 3-(1-allyl-2-oxo-2,5-dihydro-1H-pyrrol-3-yl)-N-hydroxy-propionamide] was tested. Which IC50 did it give?
A: > 10 µM

Q: How did the IC50 turn out when `O=C(O)CCC1=CCN(Cc2ccccc2)C1=O` [Example 17, 3-(1-benzyl-2-oxo-2,5-dihydro-1H-pyrrol-3-yl)-propionic acid] was run?
A: > 10 µM

Q: For `COc1ccc(CN2CCC(CC(=O)NO)C2=O)c(OC)c1` (stereo not shown) [Example 26, 2-[1-(2,4-dimethoxy-benzyl)-2-oxo-pyrrolidin-3-yl]-N-hydroxy-acetamide], which IC50 is on record?
A: > 10 µM

Q: How did the IC50 turn out when `O=C(CCCC1=CCCN(CCCCc2ccccc2)C1=O)NO` [Example 98] was run?
A: < 5 µM

Q: Which IC50 does the source give for `O=C(CC1=CCN(Cc2ccccc2)C1=O)NO` [Example 20, 2-(1-benzyl-2-oxo-2,5-dihydro-1H-pyrrol-3-yl)-N-hydroxy-acetamide] here?
A: > 10 µM

Q: With `O=C(CC1=CCCN(Cc2ccc([N+](=O)[O-])cc2)C1=O)NO` [Example 84, N-hydroxy-2-[1-(4-nitro-benzyl)-2-oxo-1,2,5,6-tetrahydro-pyridin-3-yl)-N-hydroxy-acetamide] as the compound, how does the IC50 read?
A: < 5 µM

Q: With `O=C(CC1=CCCN(CCCc2ccccc2)C1=O)NO` [Example 85, N-hydroxy-2-[2-oxo-1-(3-phenyl-propyl)-1,2,5,6-tetrahydro-pyridin-3-yl]-N-hydroxy-acetamide] as the compound, how does the IC50 read?
A: < 10 µM

Q: Which IC50 does the source give for `O=C(CCC1=CCN(Cc2ccc([N+](=O)[O-])cc2)C1=O)NO` [Example 15, N-hydroxy-3-[1-(4-nitro-benzyl)-2-oxo-2,5-dihydro-1H-pyrrol-3-yl]-propionamide] here?
A: < 10 µM

Q: Which IC50 does the source give for `O=C(CC1=CCCN(Cc2ccccc2)C1=O)NO` [Example 83, 2-(1-benzyl-2-oxo-1,2,5,6-tetrahydro-pyridin-3-yl)-N-hydroxy-acetamide] here?
A: < 5 µM

Q: Which IC50 does the source give for `O=C(CCC1=CCN(CCc2cccc(F)c2)C1=O)NO` [Example 29, 3-{1-[2-(3-fluoro-phenyl)-ethyl]-2-oxo-2,5-dihydro-1H-pyrrol-3-yl}-N-hydroxy-propionamide] here?
A: < 5 µM

Q: With `O=C(CCC1=CCN(CCc2ccccc2[N+](=O)[O-])C1=O)NO` [Example 31, N-hydroxy-3-{1-[2-(2-nitro-phenyl)-ethyl]-2-oxo-2,5-dihydro-1H-pyrrol-3-yl}-propionamide] as the compound, how does the IC50 read?
A: > 10 µM

Q: `COc1ccc(CN2CCCC(CC(=O)NO)C2=O)c(OC)c1` (stereo not shown) [Example 92, 2-[1-(2,4-dimethoxy-benzyl)-2-oxopiperidine-3-yl]-N-hydroxy-acetamide] was tested. Which IC50 did it give?
A: < 5 µM

Q: For `COc1ccccc1CN1CC=C(CCC(=O)NO)C1=O` [Example 9, N-hydroxy-3-[1-(2-methoxy-benzyl)-2-oxo-2,5-dihydro-1H-pyrrol-3-yl]-propionamide], which IC50 is on record?
A: < 10 µM

Q: How did the IC50 turn out when `O=C(CC1=CCN(CCc2ccccc2)C1=O)NO` [Example 22, N-hydroxy-2-(2-oxo-1-phenethyl-2,5-dihydro-1H-pyrrol-3-yl)-acetamide] was run?
A: > 10 µM

Q: Which IC50 does the source give for `O=C(CCC1=CCCN(Cc2ccccc2)C1=O)NO` [Example 58, N-hydroxy-3-(1-benzyl-2-oxo-1,2,5,6-tetrahydro-pyridin-3-yl)-propionic acid] here?
A: < 5 µM

Q: `O=C(CCC1=CCCNC1=O)NOCc1ccccc1` [Example 100, N-Benzyloxy-3-(2-oxo-1,2,5,6-tetrahydro-pyridin-3-yl)-propionamide] was tested. Which IC50 did it give?
A: < 5 µM

Q: Which IC50 does the source give for `O=C(CCC1=CCN(CCc2cccc3ccccc23)C1=O)NO` [Example 52, N-hydroxy-3-[1-(2-naphthalene-1-yl-ethyl)-2-oxo-2,5-dihydro-1H-pyrrol-3-yl]-propionamide] here?
A: < 5 µM

Q: With `O=C(O)CC1=CCCN(CCc2ccccc2)C1=O` [Example 89, (2-oxo-1-phenethyl-1,2,5,6-tetrahydro-pyridin-3-yl)-acetic acid] as the compound, how does the IC50 read?
A: < 5 µM

Q: With `O=C(CCC1=CCN(CCCc2ccc(-c3ccccc3)cc2)C1=O)NO` [Example 55, 3-[1-(3-biphenyl-4-yl-propyl)-2-oxo-2,5-dihydro-1H-pyrrol-3-yl]-N-hydroxy-propionamide] as the compound, how does the IC50 read?
A: < 5 µM

Q: How did the IC50 turn out when `O=C(CCC1=CCN(CCc2ccc([N+](=O)[O-])cc2)C1=O)NO` [Example 33, N-hydroxy-3-{1-[2-(4-nitro-phenyl)-ethyl]-2-oxo-2,5-dihydro-1H-pyrrol-3-yl}-propionamide] was run?
A: < 10 µM

Q: `O=C(CCC1=CCCN(Cc2ccc(NC(=O)c3ccccc3)cc2)C1=O)NO` [Example 75, N-4-[5-(2-hydroxycarbamoyl-ethyl)-6-oxo-3,6-dihydro-2-pyridin-1-yl-methyl]-phenyl-benzamide] was tested. Which IC50 did it give?
A: > 10 µM

Q: Which IC50 does the source give for `O=C(CCC1=CCN(CCCc2ccccc2)C1=O)NO` [Example 4, N-hydroxy-3-[2-oxo-1-(3-phenyl-propyl)-2,5-dihydro-1H-pyrrol-3-yl]-propionamide] here?
A: < 1 µM

Q: Which IC50 does the source give for `Cc1ccc(S(=O)(=O)Nc2ccc(CN3CC=C(CCC(=O)NO)C3=O)cc2)cc1` [Example 19, N-hydroxy-3-{2-oxo-1-[4-(toluene-4-sulfonylamino)-benzyl]-2,5-dihydro-1H-pyrrol-3-yl}-propionamide] here?
A: < 10 µM
